Test results published in ChEMBL document CHEMBL1201862, “PubChem BioAssay data set” (2004).
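Exposure lasted 48 hours, with cells grown in 96-well plates and compounds tested at five concentrations. GI50 marks 50% less growth.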 Active and inactive are the calls of the source. Rule as the data show it: active = GI50 up to about 1.1 µM and inactive = higher.

Columns and labels:
Assay in all cases: NCI-60 cell line screen, 48 h
OVCAR-3 = system: OVCAR-3
SK-OV-3 = system: SK-OV-3
K562 = system: K562
RXF 393 = system: RXF 393
SF-268 = system: SF-268
CCRF-CEM = system: CCRF-CEM
IGROV-1 = system: IGROV-1
UACC-257 = system: UACC-257
NCI-H23 = system: NCI-H23
UACC-62 = system: UACC-62
SNB-75 = system: SNB-75
CAKI-1 = system: CAKI-1
DLD-1 = system: DLD-1
NCI-H522 = system: NCI-H522
SK-MEL-28 = system: SK-MEL-28
SK-MEL-5 = system: SK-MEL-5
UO-31 = system: UO-31
HCT-116 = system: HCT-116
HOP-62 = system: HOP-62
SK-MEL-2 = system: SK-MEL-2
DMS-273 = system: DMS-273
Malme-3M = system: Malme-3M
U-251 = system: U-251
NCI-H460 = system: NCI-H460
NCI-H226 = system: NCI-H226
M14 = system: M14
KM-20L2 = system: KM-20L2
SF-539 = system: SF-539
SNB-19 = system: SNB-19
OVCAR-4 = system: OVCAR-4
SW-620 = system: SW-620
EKVX = system: EKVX
ACHN = system: ACHN
SN12C = system: SN12C
HOP-92 = system: HOP-92
HT-29 = system: HT-29
DMS-114 = system: DMS-114
SR = system: SR
MOLT-4 = system: MOLT-4
HL-60 = system: HL-60
LXFL 529 = system: LXFL 529
HCT-15 = system: HCT-15
786-0 = system: 786-0
A549 = system: A549
RPMI-8226 = system: RPMI-8226
COLO 205 = system: COLO 205
KM12 = system: KM12
HOP-18 = system: HOP-18
OVCAR-8 = system: OVCAR-8
M19-MEL = system: M19-MEL
SF-295 = system: SF-295
TK-10 = system: TK-10
OVCAR-5 = system: OVCAR-5
SNB-78 = system: SNB-78
A498 = system: A498
HCC 2998 = system: HCC 2998
LOX IMVI = system: LOX IMVI

SMILES: CC(C)[C@H]1CO[C@]2(C)[C@@H]3CN(Cc4ccccc4)C[C@@H]3C(=O)N12
- GI50 (OVCAR-3): > 100 µM (inactive)
- GI50 (SK-OV-3): > 100 µM (inactive)
- GI50 (K562): > 100 µM (inactive)
- GI50 (RXF 393): > 100 µM (inactive)
- GI50 (SF-268): > 100 µM (inactive)
- GI50 (CCRF-CEM): > 100 µM (inactive)
- GI50 (IGROV-1): > 100 µM (inactive)
- GI50 (UACC-257): > 100 µM (inactive)
- GI50 (NCI-H23): > 100 µM (inactive)
- GI50 (UACC-62): > 100 µM (inactive)
- GI50 (SNB-75): > 100 µM (inactive)
- GI50 (CAKI-1): > 100 µM (inactive)
- GI50 (DLD-1): > 100 µM (inactive)
- GI50 (NCI-H522): > 100 µM (inactive)
- GI50 (SK-MEL-28): > 100 µM (inactive)
- GI50 (SK-MEL-5): > 100 µM (inactive)
- GI50 (UO-31): > 100 µM (inactive)
- GI50 (HCT-116): > 100 µM (inactive)
- GI50 (HOP-62): > 100 µM (inactive)
- GI50 (SK-MEL-2): > 100 µM (inactive)
- GI50 (DMS-273): > 100 µM (inactive)
- GI50 (Malme-3M): > 100 µM (inactive)
- GI50 (U-251): > 100 µM (inactive)
- GI50 (NCI-H460): > 100 µM (inactive)
- GI50 (NCI-H226): > 100 µM (inactive)
- GI50 (M14): > 100 µM (inactive)
- GI50 (KM-20L2): > 100 µM (inactive)
- GI50 (SF-539): > 100 µM (inactive)
- GI50 (SNB-19): > 100 µM (inactive)
- GI50 (OVCAR-4): > 100 µM (inactive)
- GI50 (SW-620): > 100 µM (inactive)
- GI50 (EKVX): > 100 µM (inactive)
- GI50 (ACHN): > 100 µM (inactive)
- GI50 (SN12C): > 100 µM (inactive)
- GI50 (HOP-92): 74.5 µM (inactive)
- GI50 (HT-29): > 100 µM (inactive)
- GI50 (DMS-114): > 100 µM (inactive)
- GI50 (SR): > 100 µM (inactive)
- GI50 (MOLT-4): > 100 µM (inactive)
- GI50 (HL-60): > 100 µM (inactive)
- GI50 (LXFL 529): > 100 µM (inactive)
- GI50 (HCT-15): > 100 µM
- GI50 (786-0): > 100 µM (inactive)
- GI50 (A549): > 100 µM (inactive)
- GI50 (RPMI-8226): > 100 µM (inactive)
- GI50 (COLO 205): > 100 µM (inactive)
- GI50 (KM12): > 100 µM (inactive)
- GI50 (HOP-18): > 100 µM (inactive)
- GI50 (OVCAR-8): > 100 µM (inactive)
- GI50 (M19-MEL): > 100 µM (inactive)
- GI50 (SF-295): > 100 µM (inactive)
- GI50 (TK-10): > 100 µM (inactive)

SMILES: COc1cc(Nc2nc3ccc(C(F)(F)F)cc3nc2-c2ccccc2)cc(OC)c1OC
- GI50 (OVCAR-3): 40.6 µM (inactive)
- GI50 (SK-OV-3): > 100 µM (inactive)
- GI50 (K562): 5.56 µM (inactive)
- GI50 (RXF 393): 30 µM (inactive)
- GI50 (SF-268): 5.75 µM (inactive)
- GI50 (CCRF-CEM): 8.11 µM (inactive)
- GI50 (IGROV-1): > 100 µM (inactive)
- GI50 (UACC-257): 16.1 µM (inactive)
- GI50 (NCI-H23): 67.5 µM (inactive)
- GI50 (UACC-62): 36.2 µM (inactive)
- GI50 (SNB-75): > 100 µM (inactive)
- GI50 (OVCAR-5): 20.7 µM (inactive)
- GI50 (CAKI-1): 18.8 µM (inactive)
- GI50 (DLD-1): 6.73 µM (inactive)
- GI50 (NCI-H522): 27.8 µM (inactive)
- GI50 (SK-MEL-28): 40.8 µM (inactive)
- GI50 (SK-MEL-5): 16.4 µM (inactive)
- GI50 (UO-31): 10 µM (inactive)
- GI50 (HOP-62): > 100 µM (inactive)
- GI50 (SK-MEL-2): 21.9 µM (inactive)
- GI50 (DMS-273): 12 µM (inactive)
- GI50 (Malme-3M): 37 µM (inactive)
- GI50 (U-251): 32.7 µM (inactive)
- GI50 (NCI-H460): 4.82 µM (inactive)
- GI50 (SNB-78): > 100 µM (inactive)
- GI50 (NCI-H226): 7.66 µM (inactive)
- GI50 (M14): 9.93 µM (inactive)
- GI50 (KM-20L2): 5.85 µM (inactive)
- GI50 (SF-539): 25.2 µM (inactive)
- GI50 (OVCAR-4): 51.4 µM (inactive)
- GI50 (SW-620): 85.3 µM (inactive)
- GI50 (EKVX): 18.2 µM (inactive)
- GI50 (ACHN): 9.1 µM (inactive)
- GI50 (A498): 24.5 µM (inactive)
- GI50 (SN12C): 18.7 µM (inactive)
- GI50 (HOP-92): 0.991 µM (active)
- GI50 (HT-29): 1.98 µM (inactive)
- GI50 (SR): 8.3 µM (inactive)
- GI50 (HCC 2998): 4.23 µM (inactive)
- GI50 (MOLT-4): 8.41 µM (inactive)
- GI50 (LXFL 529): 23.1 µM (inactive)
- GI50 (HCT-15): 4.41 µM
- GI50 (786-0): 31 µM (inactive)
- GI50 (A549): 23.8 µM (inactive)
- GI50 (COLO 205): > 10 µM (inactive)
- GI50 (KM12): 9.38 µM (inactive)
- GI50 (HOP-18): < 0.01 µM (active)
- GI50 (OVCAR-8): 28.2 µM (inactive)
- GI50 (LOX IMVI): 4.32 µM (inactive)
- GI50 (SF-295): 3.05 µM (inactive)
- GI50 (TK-10): > 100 µM (inactive)

SMILES: COC(=O)N1[C@H]2Cc3c(OC)c(C)c(OC)c(OC)c3[C@@H]1/C(=C\c1cc(OC)c(OC)c(C)c1OC)N(Cc1ccccc1)C2=O
- GI50 (OVCAR-3): 32.7 µM (inactive)
- GI50 (SK-OV-3): 57.3 µM (inactive)
- GI50 (K562): 26.2 µM (inactive)
- GI50 (RXF 393): > 100 µM (inactive)
- GI50 (SF-268): 78.2 µM (inactive)
- GI50 (CCRF-CEM): 28.6 µM (inactive)
- GI50 (IGROV-1): 95.3 µM (inactive)
- GI50 (UACC-257): 23 µM (inactive)
- GI50 (NCI-H23): 75 µM (inactive)
- GI50 (UACC-62): 56.9 µM (inactive)
- GI50 (SNB-75): 67.5 µM (inactive)
- GI50 (OVCAR-5): > 100 µM (inactive)
- GI50 (CAKI-1): 34.6 µM (inactive)
- GI50 (DLD-1): 76.9 µM (inactive)
- GI50 (NCI-H522): 5.7 µM (inactive)
- GI50 (SK-MEL-28): > 100 µM (inactive)
- GI50 (SK-MEL-5): 21.8 µM (inactive)
- GI50 (UO-31): 18.7 µM (inactive)
- GI50 (HCT-116): 35.6 µM (inactive)
- GI50 (HOP-62): 74.1 µM (inactive)
- GI50 (SK-MEL-2): 24.7 µM (inactive)
- GI50 (DMS-273): 13.2 µM (inactive)
- GI50 (Malme-3M): 28.6 µM (inactive)
- GI50 (U-251): 27.9 µM (inactive)
- GI50 (NCI-H460): 13.2 µM (inactive)
- GI50 (NCI-H226): 0.23 µM (active)
- GI50 (M14): 29.7 µM (inactive)
- GI50 (KM-20L2): 46.2 µM (inactive)
- GI50 (SF-539): > 100 µM (inactive)
- GI50 (SNB-19): 58.9 µM (inactive)
- GI50 (OVCAR-4): 6.7 µM (inactive)
- GI50 (EKVX): 37.7 µM (inactive)
- GI50 (ACHN): 32.4 µM (inactive)
- GI50 (A498): > 100 µM (inactive)
- GI50 (SN12C): 40.6 µM (inactive)
- GI50 (HOP-92): 7.96 µM (inactive)
- GI50 (HT-29): 45.1 µM (inactive)
- GI50 (DMS-114): 14.7 µM (inactive)
- GI50 (SR): 7.85 µM (inactive)
- GI50 (HCC 2998): 8.51 µM (inactive)
- GI50 (MOLT-4): 16.1 µM (inactive)
- GI50 (HL-60): 5.52 µM (inactive)
- GI50 (LXFL 529): 22 µM (inactive)
- GI50 (786-0): 54 µM (inactive)
- GI50 (A549): 40.8 µM (inactive)
- GI50 (RPMI-8226): 20.9 µM (inactive)
- GI50 (COLO 205): 13.8 µM (inactive)
- GI50 (KM12): 27.4 µM (inactive)
- GI50 (HOP-18): 41.8 µM (inactive)
- GI50 (OVCAR-8): 32.4 µM (inactive)
- GI50 (M19-MEL): 19.9 µM (inactive)
- GI50 (LOX IMVI): 30.5 µM (inactive)
- GI50 (SF-295): 39 µM (inactive)
- GI50 (TK-10): 33.3 µM (inactive)
